According to US20220160686A1, “MACROCYCLIC AZOLOPYRIDINE DERIVATIVES AS EED AND PRC2 MODULATORS” (Fulcrum Therapeutics, Inc., priority 2019, published 2022):
Where two headings read alike, the source gives them in different places.

Test system: human P-glycoprotein HEK cells (HEK-P-gp)
Test: H3K27me3 immunocytochemistry assay in P-gp expressing HEK293T cells, with or without elacridar
Format: cell-based
Conditions: Homo sapiens, 4 days compound treatment
Outline: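 HEK293T stably expressing human ABCB1 (vinblastine-selected), 1000 cells/well, treated with serially diluted compound for 4 days at 37° C, with or without 250 nM elacridar. Fixed cells stained with anti-H3K27me3 plus Alexa 488 secondary and Hoechst; imaged at 10×, nuclei identified by Hoechst.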

[1] = HEK293, 96 h, without elacridar, read-out: IC50, inhibitory activity on human P-glycoprotein HEK cells (HEK-P-gp)
[2] = HEK293, with 250 nM elacridar, read-out: IC50, inhibitory activity on human P-glycoprotein HEK cells (HEK-P-gp) pretreated with elacridar

| SMILES | IC50 [1] | IC50 [2] |
| --- | --- | --- |
| Cc1ncccc1-c1cc2c(n3cnnc13)NCc1cccc3c1[C@H](CO3)CO2 [Compound 1, (15R)-10-(2-methyl-3-pyridyl)-13,17-dioxa-3,5,7,8-tetrazapentacyclo[13.6.1.04,12.05,9.018,22] docosa-1(22),4(12),6,8,10,18,20-heptaene] | 100 to 500 nM | < 25 nM |
| CC(=O)N1CCC(c2cc3c(n4cnnc24)NCc2cccc4c2[C@@H](CO4)CO3)CC1 [Compound 3, (S)-1-(4-(7a,8,13,14-tetrahydro-7H-[1,2,4]triazolo[4′,3′:1,6]pyrido[3,2-b]benzofuro[4,3-fg][1,4]oxazonin-4-yl)piperidin-1-yl)ethan-1-one] | > 500 nM | 100 to 500 nM |
| CC(=O)N1CCC(c2cc3c(n4cnnc24)NCc2c(F)cccc2CCO3)CC1 [Compound 4, 1-(4-(12-fluoro-7,8,13,14-tetrahydro-[1,2,4]triazolo[4′,3′:1,6]pyrido[3,2-b]benzo[f][1,4]oxazonin-4-yl)piperidin-1-yl)ethan-1-one] | > 500 nM | > 500 nM |
| Cc1ncccc1-c1cc2c(n3cnnc13)NCc1c(F)cccc1CCO2 [Compound 5, 12-fluoro-4-(2-methylpyridin-3-yl)-7,8,13,14-tetrahydro-[1,2,4]triazolo[4′,3′:1,6]pyrido[3,2-b]benzo[f][1,4]oxazonine] | > 500 nM | > 500 nM |
| Cc1ncccc1-c1cc2c(n3cnnc13)NCc1c(F)cccc1COC2 [Compound 6, 12-fluoro-4-(2-methylpyridin-3-yl)-6,8,13,14-tetrahydro-[1,2,4]triazolo[4′,3′:1,6]pyrido[3,2-c]benzo[g][1,5]oxazonine] | > 500 nM | > 500 nM |
| Cn1cc(Cc2cc3c(n4cnnc24)NCc2cccc4c2[C@@H](CO4)CO3)cn1 [Compound 7, (S)-4-((1-methyl-1H-pyrazol-4-yl)methyl)-7a,8,13,14-tetrahydro-7H-[1,2,4]triazolo[4′,3′:1,6]pyrido[3,2-b]benzofuro[4,3-fg][1,4]oxazonine] | > 500 nM | 100 to 500 nM |
| Cn1cc(Cc2cc3c(n4cnnc24)NCc2c(F)ccc4c2[C@@H](CO4)CO3)cn1 [Compound 10, (S)-12-fluoro-4-((1-methyl-1H-pyrazol-4-yl)methyl)-7a,8,13,14-tetrahydro-7H-[1,2,4]triazolo[4′,3′:1,6]pyrido[3,2-b]benzofuro[4,3-fg][1,4]oxazonine] | > 500 nM | 100 to 500 nM |
| c1cc2c3c(c1)OC[C@H]3COc1ccc3nncn3c1NC2 [Compound 11, (S)-7a,8,13,14-tetrahydro-7H-[1,2,4]triazolo[4′,3′:1,6]pyrido[3,2-b]benzofuro[4,3-fg][1,4]oxazonine] | > 500 nM | > 500 nM |
| Fc1ccc2c3c1CNc1c(cc(C4COC4)c4nncn14)OC[C@@H]3CO2 [Compound 12, (S)-12-fluoro-4-(oxetan-3-yl)-7a,8,13,14-tetrahydro-7H-[1,2,4]triazolo[4′,3′:1,6]pyrido[3,2-b]benzofuro[4,3-fg][1,4]oxazonine] | 50 to 100 nM | 25 to 50 nM |
| Cc1ncc(-c2cc3c(n4cnnc24)NCc2c(F)ccc4c2[C@@H](CO4)CO3)c(C)n1 [Compound 13, (S)-4-(2,4-dimethylpyrimidin-5-yl)-12-fluoro-7a,8,13,14-tetrahydro-7H-[1,2,4]triazolo[4′,3′:1,6]pyrido[3,2-b]benzofuro[4,3-fg][1,4]oxazonine] | 25 to 50 nM | < 25 nM |
| Cc1ncc(-c2cc3c(n4cnnc24)NCc2c(F)cccc2CCO3)c(C)n1 [Compound 14, 4-(2,4-dimethylpyrimidin-5-yl)-12-fluoro-7,8,13,14-tetrahydro-[1,2,4]triazolo[4′,3′:1,6]pyrido[3,2-b]benzo[f][1,4]oxazonine] | > 500 nM | > 500 nM |
| Cc1cn(-c2cc3c(n4cnnc24)NCc2c(F)ccc4c2[C@@H](CO4)CO3)cn1 [Compound 15, (S)-12-fluoro-4-(4-methyl-1H-imidazol-1-yl)-7a,8,13,14-tetrahydro-7H-[1,2,4]triazolo[4′,3′:1,6]pyrido[3,2-b]benzofuro[4,3-fg][1,4]oxazonine] | 25 to 50 nM | < 25 nM |
| COC(=O)N1CCC(c2cc3c(n4cnnc24)NCc2c(F)ccc4c2C(CO4)CO3)CC1 [Compound 16, methyl (S)-4-(12-fluoro-7a,8,13,14-tetrahydro-7H-[1,2,4]triazolo[4′,3′:1,6]pyrido[3,2-b]benzofuro[4,3-fg][1,4]oxazonin-4-yl)piperidine-1-carboxylate] | 100 to 500 nM | 50 to 100 nM |
| Fc1cncnc1-c1cc2c(n3cnnc13)NCc1c(F)ccc3c1[C@@H](CO3)CO2 [Compound 164, (S)-12-fluoro-4-(5-fluoropyrimidin-4-yl)-7a,8,13,14-tetrahydro-7H-[1,2,4]triazolo[4′,3′:1,6]pyrido[3,2-b]benzofuro[4,3-fg][1,4]oxazonine] | < 25 nM | < 25 nM |
| Fc1ccc2c3c1CNc1c(cc(Br)c4nncn14)OC[C@@H]3CO2 [Compound 165, (S)-4-bromo-12-fluoro-7a,8,13,14-tetrahydro-7H-[1,2,4]triazolo[4′,3′:1,6]pyrido[3,2-b]benzofuro[4,3-fg][1,4]oxazonine] | > 500 nM | > 500 nM |
| Cn1nc(OC(F)F)cc1-c1cc2c(n3cnnc13)NCc1c(F)ccc3c1[C@@H](CO3)CO2 [Compound 167, (S)-4-(3-(difluoromethoxy)-1-methyl-1H-pyrazol-5-yl)-12-fluoro-7a,8,13,14-tetrahydro-7H-[1,2,4]triazolo[4′,3′:1,6]pyrido[3,2-b]benzofuro[4,3-fg][1,4]oxazonine] | < 25 nM | < 25 nM |
| Cn1nc(F)cc1-c1cc2c(n3cnnc13)NCc1c(F)ccc3c1[C@@H](CO3)CO2 [Compound 168, (S)-12-fluoro-4-(3-fluoro-1-methyl-1H-pyrazol-5-yl)-7a,8,13,14-tetrahydro-7H-[1,2,4]triazolo[4′,3′:1,6]pyrido[3,2-b]benzofuro[4,3-fg][1,4]oxazonine] | < 25 nM | < 25 nM |
| Cn1nc(C(C)(C)C#N)cc1-c1cc2c(n3cnnc13)NCc1c(F)ccc3c1[C@@H](CO3)CO2 [Compound 169, (S)-2-(5-(12-fluoro-7a,8,13,14-tetrahydro-7H-[1,2,4]triazolo[4′,3′:1,6]pyrido[3,2-b]benzofuro[4,3-fg][1,4]oxazonin-4-yl)-1-methyl-1H-pyrazol-3-yl)-2-methylpropanenitrile] | < 25 nM | < 25 nM |
| Cn1nccc1-c1cc2c(n3cc(C#N)nc13)NCc1c(F)ccc3c1[C@@H](CO3)CO2 [Compound 172, (S)-5-fluoro-12-(1-methyl-1H-pyrazol-5-yl)-6,7,15,15a-tetrahydro-1H-benzofuro[4,3-fg]imidazo[r,2′:1,6]pyrido[3,2-b][1,4]oxazonine-10-carbonitrile] | 25 to 50 nM | 25 to 50 nM |
| Cn1nccc1-c1cc2c(n3cc(C(N)=O)nc13)NCc1c(F)ccc3c1[C@@H](CO3)CO2 [Compound 175, (S)-5-fluoro-12-(1-methyl-1H-pyrazol-5-yl)-6,7,15,15a-tetrahydro-1H-benzofuro[4,3-fg]imidazo[r,2′:1,6]pyrido[3,2-b][1,4]oxazonine-10-carboxamide] | > 500 nM | 100 to 500 nM |
| Cc1ncccc1-c1cc2c(n3cc(C(N)=O)nc13)NCc1c(F)ccc3c1[C@@H](CO3)CO2 [Compound 176, (S)-5-fluoro-12-(2-methylpyridin-3-yl)-6,7,15,15a-tetrahydro-1H-benzofuro[4,3-fg]imidazo[r,2′:1,6]pyrido[3,2-b][1,4]oxazonine-10-carboxamide] | > 500 nM | > 500 nM |
| Cc1ncccc1-c1cc2c(n3cc(C#N)nc13)NCc1c(F)ccc3c1[C@@H](CO3)CO2 [Compound 186, (S)-5-fluoro-12-(2-methylpyridin-3-yl)-6,7,15,15a-tetrahydro-1H-benzofuro[4,3-fg]imidazo[1′,2′:1,6]pyrido[3,2-b][1,4]oxazonine-10-carbonitrile] | 50 to 100 nM | 25 to 50 nM |
| Cc1ncoc1-c1cc2c(n3cnnc13)NCc1c(F)ccc3c1[C@@H](CO3)CO2 [Compound 189, (S)-12-fluoro-4-(4-methyloxazol-5-yl)-7a,8,13,14-tetrahydro-7H-[1,2,4]triazolo[4′,3′:1,6]pyrido[3,2-b]benzofuro[4,3-fg][1,4]oxazonine] | < 25 nM | < 25 nM |
| Cn1nccc1-c1cc2c(n3cnnc13)NCc1c(F)ccc3c1C(CO3)CO2 (stereo not shown) [Example 17] | < 25 nM | < 25 nM |
| COc1ncc(-c2cc3c(n4cnnc24)NCc2c(F)ccc4c2[C@H](CO4)CO3)cn1 [Example 30] | 50 to 100 nM | 25 to 50 nM |
| CS(=O)(=O)c1ccc(-c2cc3c(n4cnnc24)NCc2c(F)ccc4c2C(CO4)CO3)cc1 (stereo not shown) [Example 36] | < 25 nM | < 25 nM |
| CN(CC(F)(F)F)C(=O)c1cc2c(n3cnnc13)NCc1c(F)ccc3c1C(CO3)CO2 (stereo not shown) [Example 38] | 50 to 100 nM | 100 to 500 nM |
| Cc1cc(C#N)ccc1-c1cc2c(n3cnnc13)NCc1c(F)ccc3c1[C@H](CO3)CO2 [Example 49] | 25 to 50 nM | < 25 nM |
| Cn1nc(C(F)(F)F)cc1-c1cc2c(n3cnnc13)NCc1c(F)ccc3c1[C@H](CO3)CO2 [Example 115] | 25 to 50 nM | < 25 nM |
